Test results published in PMC12655529, “Serendipitous Hinge Modulation Hypothetically Reprograms Caerin 1.1-LC Antibacterial Mechanism and Gram-Negative Selectivity” (Pharmaceutics, 2025).
Ends that are not written are not given here.

Columns and labels:
[1] = tested on: Klebsiella pneumoniae ATCC 43816; type: cell-based; details: ATCC 43816
Procedure: (§2) The antimicrobial activities of the peptides were evaluated by determining their minimal inhibitory concentration (MIC) and minimal bactericidal concentration (MBC) values following reported protocols [20]. The tested microorganisms included seven Gram-negative bacterial strains (Escherichia coli ATCC 8739, E. coli ATCC-BAA 2340, E. coli NCTC 13846, Klebsiella pneumoniae ATCC 43816, K. pneumoniae ATCC BAA-2342, Pseudomonas aeruginosa ATCC 9027, Acinetobacter baumannii ATCC BAA-747), three Gram-positive bacterial strains (Staphylococcus aureus ATCC 6538, Enterococcus faecalis NCTC 12697, MRSA NCTC 12493, and the fungal strain Candida albicans ATCC 10231. For the assay, each bacterial strain was cultured overnight at 37 °C in 100 mL of medium in a flask. The cultures were then subcultured to reach the logarithmic growth phase and diluted to 5 × 10^5 CFU/mL. Peptide samples were serially diluted two-fold in microplates, with concentrations ranging from 128 μM to 1 μM. The diluted bacterial suspensions were mixed with the peptide solutions and incubated overnight at 37 °C. The MIC values were determined by measuring the absorbance of each well using a Synergy HT plate reader (Agilent, Cheshire, UK). For MBC determination, aliquots from wells showing no visible growth were inoculated onto agar plates to assess bacterial viability. Each experiment was repeated independently three times and conducted in three independent replicates.

E. coli NCTC 13846 = type: cell-based, Escherichia coli
Procedure: as §2

[2] = tested on: Staphylococcus aureus ATCC 6538; type: cell-based; details: ATCC 6538
Procedure: as §2

[3] = tested on: Acinetobacter baumannii ATCC BAA-747; type: cell-based; details: ATCC BAA-747
MRSA NCTC 12493 = type: cell-based, Staphylococcus aureus
[4] = tested on: Enterococcus faecalis NCTC 12697; type: cell-based; details: NCTC 12697
Procedure: as §2

[5] = tested on: K. pneumoniae ATCC BAA-2342; type: cell-based, Klebsiella pneumoniae
Procedure: as §2

E. coli (ATCC-BAA 2340) = type: cell-based, Escherichia coli; details: ATCC-BAA 2340
In short: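 E. coli MIC by broth microdilution, determined after bacteria were pre-exposed to media with 150 mM NaCl, 4.5 mM KCl, 2 mM CaCl2, 1 mM MgCl2, 8 µM ZnCl2, 6 µM NH4Cl, 4 µM FeCl3, or 10% FBS. Three independent experiments, each in triplicate.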

Gram-positive bacteria = test: Geometric mean MIC and therapeutic index, Gram-positive; type: cell-based; details: geometric mean of MICs
horse red blood cells = test: Haemolysis assay; type: cell-based; details: concentration inducing 10% haemolysis of horse erythrocytes; 4% (v/v) in PBS, 2 h, 37 °C, absorbance 570 nm; no haemolysis at maximum testing concentration (128 μM) recorded as 256 μM
In short: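 Horse erythrocytes, PBS-washed, at 4% (v/v) in PBS were exposed to peptide over a concentration range for 2 h at 37 °C. Supernatant absorbance at 570 nm was read after centrifugation. Haemolysis % was normalised between PBS blank (0%) and 0.1% Triton X-100 (100%).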

E. coli ATCC BAA-2340 = type: cell-based, Escherichia coli
Procedure: as §2

[6] = tested on: Pseudomonas aeruginosa ATCC 9027; type: cell-based
Procedure: as §2

[7] = tested on: RAW 264.7 murine macrophages; type: cell-based; details: 24 h
Procedure: (§1) The peptide’s cytotoxicity against normal cell lines was detected by the MTT assay. Following resuscitation from cryopreservation (−80 °C), the cell line underwent multiple passages to ensure viability and adaptation. Cells were then seeded into 96-well plates and maintained at 37 °C in a 5% CO2 humidified atmosphere for 24 h to achieve proper adherence. After incubation, cells were serum-starved for 4 h using foetal bovine serum (FBS)-free medium (ThermoFisher, Waltham, MA, USA) to synchronise cell cycle progression. Peptide solutions were prepared at concentrations ranging from 128 μM to 1 μM (serial two-fold dilutions) and applied to the cells. Following peptide treatment, 10 μL of MTT (3-(4,5-dimethylthiazol-2-yl)-2,5-diphenyltetrazolium bromide) solution (5 mg/mL in PBS) was added to each well and incubated for 2 h at 37 °C. The medium was then carefully aspirated, and 100 μL of DMSO was added to dissolve the formazan crystals. Absorbance was measured at 570 nm using a microplate reader (Agilent, Cheshire, UK), with a reference wavelength of 630 nm to account for background interference. Experiments were conducted in triplicate and repeated three independent times.

[8] = tested on: MRC-5 human embryonic lung fibroblasts; type: cell-based; details: 24 h
Procedure: as §1

[9] = tested on: HaCaT human keratinocytes; type: cell-based; details: 24 h
Procedure: as §1

[10] = tested on: HMEC-1 human microvascular endothelial cells; type: cell-based; details: 24 h
Procedure: as §1

[11] = tested on: HEK 293 human embryonic kidney cells; type: cell-based; details: 24 h
Procedure: as §1

[12] = tested on: Escherichia coli ATCC 8739; type: cell-based; details: ATCC 8739
[13] = tested on: Galleria mellonella larvae; test: In vivo toxicity in larvae; details: uninfected G. mellonella larvae, injection at 1×, 2×, 4× MIC, n = 10 per group, observed five days

Substance: GLLSVLGSLKLIVPHVVPLIAEKL-NH2 [Caerin 1.1-LC]
- MBC, K. pneumoniae (ATCC 43816) [1]: 64 µM
- MIC, K. pneumoniae (ATCC 43816) [1]: 16 µM
- MBC, E. coli (NCTC 13846) (E. coli NCTC 13846): 32 µM
- MIC, E. coli (NCTC 13846) (E. coli NCTC 13846): 4 µM
- MBC, S. aureus (ATCC 6538) [2]: 128 µM
- MIC, S. aureus (ATCC 6538) [2]: 64 µM
- MBC, A. baumannii (ATCC BAA-747) [3]: 128 µM
- MIC, A. baumannii (ATCC BAA-747) [3]: 16 µM
- MBC, MRSA (NCTC 12493) (MRSA NCTC 12493): 128 µM
- MIC, MRSA (NCTC 12493) (MRSA NCTC 12493): 32 µM
- MBC, E. faecalis (NCTC 12697) [4]: >128 µM
- MIC, E. faecalis (NCTC 12697) [4]: >128 µM
- MBC, K. pneumoniae (ATCC BAA-2342) [5]: 64 µM
- MIC, K. pneumoniae (ATCC BAA-2342) [5]: 16 µM
- MIC, Ca^2+ (E. coli (ATCC-BAA 2340)): 64 µM
- MIC, FBS (E. coli (ATCC-BAA 2340)): 32 µM
- MIC, Fe^3+ (E. coli (ATCC-BAA 2340)): 16 µM
- MIC, K^+ (E. coli (ATCC-BAA 2340)): 16 µM
- MIC, Mg^2+ (E. coli (ATCC-BAA 2340)): 32 µM
- MIC, NH4^+ (E. coli (ATCC-BAA 2340)): 16 µM
- MIC, Na^+ (E. coli (ATCC-BAA 2340)): 16 µM
- GM MIC Gram-Positive (Gram-positive bacteria): 14.25 µM
- HC10 (horse red blood cells): 37.5 µM
- MBC, E. coli (ATCC BAA-2340) (E. coli ATCC BAA-2340): 16 µM
- MIC, E. coli (ATCC BAA-2340) (E. coli ATCC BAA-2340): 8 µM
- MBC, P. aeruginosa (ATCC 9027) [6]: 128 µM
- MIC, P. aeruginosa (ATCC 9027) [6]: 64 µM
- IC50 [7]: 6 µM
- IC50 [8]: 14.8 µM
- IC50 [9]: 61.2 µM
- IC50 [10]: 79.3 µM
- IC50 [11]: 10.8 µM
- MBC, E. coli (ATCC 8739) [12]: 64 µM
- MIC, E. coli (ATCC 8739) [12]: 16 µM
- toxicity to larvae (mortality) [13]: complete mortality by day four or five post-injection
